From patent publication US20240041042A1, “1-(PYRIDYL)-5-AZINYLPYRAZOLE DERIVATIVES, AND THEIR USE FOR CONTROL OF UNDESIRED PLANT GROWTH” (Bayer Aktiengesellschaft, priority 2020, published 2024)

Assays:
[1] = tested on: Triticum aestivum (TRZAS); assay type: in vivo; details: 20 g/ha; crop plant compatibility, effect vs untreated controls
Method in brief: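 Crop injury rated visually in percent against untreated plants roughly 3 weeks after treatment (0% no effect, 100% plants dead). Compounds, as WP or EC with 0.5% additive in 600 l/ha water, were applied to the covering soil right after sowing; greenhouse growth. Suffixes a, b, c denote different dosages.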

[2] = tested on: Triticum aestivum (TRZAS); assay type: in vivo; details: crop plant compatibility, 20 g/ha, effect vs untreated controls
Method in brief: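 Greenhouse crops in sandy loam sprayed post-emergence at the one-leaf stage, 2–3 weeks after sowing, with WP or EC formulations in water plus 0.5% additive at 600 l/ha. Damage rated visually about 3 weeks later versus untreated controls (0% = like control, 100% = dead); suffixes a–c denote different doses.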

Pre-emergence action against TRZAS [1]: 10%
Post-emergence action against TRZAS in % [2]: 10%
Structure (SMILES): O=C(O)COc1nn(-c2ncccc2F)c(-c2ccc(F)nc2)c1Br [Example I-17]
